In the assay the target is T1, human JAK3 (Homo sapiens, UniProt P52333).
T1 construct: His (N); purchased Carna Bioscience Inc. (Kobe, Japan); host or cells: baculovirus expression system
The experiment in a line: Determination of Janus Kinase 3 (JAK3) inhibitory activity. It is filed as biochemical. To be noted: for inhibition at 0.01 µM / inhibition at 10 µM: read-out: IR (JAK3 inhibition rate); for inhibition at 10 µM: test compound 10^−5M; for pIC50: JAK3 inhibitory activity. On the procedure: Test 1: Determination of Janus Kinase 3 (JAK3) Inhibitory Activity
The assay for JAK3 activity was performed basically according to the method as proposed by Okimoto et al, as follows.
Purified kinase domain (KD) of human JAK3 was purchased from Carna Bioscience Inc. (Kobe, Japan). 796-1124 (end) amino acids of human JAK3 [accession number #NM_000215] was expressed as N-terminal His-tagged protein (41 kDa) using the baculovirus expression system and purified by using Ni-NTA affinity chromatography.
Biotin-Lyn-Substrate-peptide and ATP were used as substrates. Assay buffer consisted of 15 mM Tris-HCl pH7.5, 0.01% Tween 20 and 2 mM DTT. For the standard assay, 20 μL of substrate solution (Assay buffer containing 627 nM Biotin-Lyn-Substrate-2, 20 μM ATP and 25 mM MgCl2), 10 μL of assay buffer containing test compound and 20 μL of enzyme solution were added to the plate and mixed well.
After 1 hour incubation at ambient temperature, the plate was washed 4 times with wash buffer (50 mM Tris-HCl pH 7.5, 150 mM NaCl, 0.02% Tween 20), and then blocking buffer (wash buffer containing 0.1% Bovine serum albumin) was added to the plate. After 30 minutes incubation at ambient temperature, blocking buffer was removed and HRP-PY-20 solution (HRP-PY-20 500 times diluted with blocking buffer) was added. After 30 minutes incubation at ambient temperature, the plate was washed 4 times and TMB substrate solution (Sigma) was added to the plate. After 4 minutes incubation at ambient temperature, 1 M H2SO4 was added to the plate to stop the reaction. Enzyme activity was measured as optical density at 450 nm.

pIC50: −log10 of the molar value. Structures can show the parent of a compound that is named as a salt. Where two headings read alike, the source gives them in different places.

T1 sequence (P52333 796-1124): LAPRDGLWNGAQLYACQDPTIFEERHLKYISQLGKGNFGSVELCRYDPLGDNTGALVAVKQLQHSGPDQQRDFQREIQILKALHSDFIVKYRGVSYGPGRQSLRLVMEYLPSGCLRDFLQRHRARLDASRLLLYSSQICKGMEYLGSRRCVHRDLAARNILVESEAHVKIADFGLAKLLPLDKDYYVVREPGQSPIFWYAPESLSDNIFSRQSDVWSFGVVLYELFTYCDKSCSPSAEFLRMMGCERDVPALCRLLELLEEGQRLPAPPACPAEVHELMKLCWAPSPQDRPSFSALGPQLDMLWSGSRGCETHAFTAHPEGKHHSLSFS

The inhibition is the percentage by which the read-out fell short of the control. Take `N#Cc1ccc(N2CCC(Nc3c(C(N)=O)cnc4[nH]cnc34)CC2)nc1` [Example 322, 7-{[1-(5-cyano-2-pyridinyl)-4-piperidinyl]amino}-3H-imidazo[4,5-b]pyridine-6-carboxamide]: for the setting “test compound 10^−8M”, the inhibition at 0.01 µM is greater than 50%.
Turning to `C[C@@H]1CCCC[C@@H]1N(C)c1c(C#N)cnc2[nH]ccc12` [Example 5, 4-{Methyl[(1S,2R)-2-methylcyclohexyl]amino}-1H-pyrrolo[2,3-b]-pyridine-5-carbonitrile], the inhibition at 10 µM is greater than 50%.
Still for that read-out and setting: the figure for `C[C@@H]1CCCC[C@@H]1Nc1c(F)cnc2[nH]ccc12` [Example 225, 5-fluoro-N-[(1S,2R)-2-methylcyclohexyl]-1H-pyrrolo[2,3-b]pyridin-4-amine] is greater than 50%.
With `CNC(=O)c1cnc2[nH]ccc2c1NC1CCCCC1` [Example 187, 4-(cyclohexylamino)-N-methyl-1H-pyrrolo[2,3-b]pyridine-5-carboxamide], the inhibition at 10 µM was greater than 50%.
One may read the pIC50 as the IC50 on a negative log10 scale, so that one unit is a factor of ten. Lower therefore signals a high IC50. For the molecule `CC[C@@H]1CCCC[C@@H]1n1c(=O)[nH]c2cnc3[nH]ccc3c21` [Example 118, 1-[(1S,2R)-2-Ethylcyclohexyl]-3,6-dihydroimidazo[4,5-d]pyrrolo-[2,3-b]pyridin-2(1H)-one hydrochloride], the negative-log IC50 (pIC50) is 8.29 and the inhibition at 0.01 µM is greater than 50%.
With `C[C@@H]1CCN(C(=O)N2CCC(F)(F)C2)C[C@@H]1n1c(=O)[nH]c2cnc3[nH]ccc3c21` (relative stereo) [Example 274, rel-1-{(3R,4R)-1-[(3,3-difluoropyrrolidin-1-yl)carbonyl]-4-methylpiperidin-3-yl}-3,6-dihydroimidazo[4,5-d]pyrrolo[2,3-b]pyridin-2(1H)-one], the inhibition at 0.01 µM (test compound 10^−8M) is greater than 50%.
Take `C[C@@H]1CCN(C(=O)c2ccc(Cl)s2)C[C@@H]1n1c(=O)[nH]c2cnc3[nH]ccc3c21` (relative stereo) [Example 170, rel-1-{(3R,4R)-1-[(5-Chloro-2-thienyl)carbonyl]-4-methyl-3-piperidinyl}-3,6-dihydroimidazo[4,5-d]pyrrolo[2,3-b]pyridin-2(1H)-one]: where the note is “test compound 10^−8M”, the inhibition at 0.01 µM is greater than 50%.
`CN(c1ccnc2[nH]cc([N+](=O)[O-])c12)C1CCCCC1` [Example 210, N-cyclohexyl-N-methyl-3-nitro-1H-pyrrolo[2,3-b]pyridin-4-amine]: the inhibition at 10 µM was greater than 50%.
Consider `CC(C)[C@@H](C)Nc1c(C(N)=O)cnc2[nH]ccc12` [Example 18, 4-{[(1R)-1,2-Dimethylpropyl]amino}-1H-pyrrolo[2,3-b]pyridine-5-carboxamide], for which, for the setting “test compound 10^−8M”, the inhibition at 0.01 µM is greater than 50%.
Take `O=C(O)c1cnc2[nH]ccc2c1NC1CCCCC1` [Example 96, 4-(cyclohexylamino)-1H-pyrrolo[2,3-b]pyridine-5-carboxylic acid]: the inhibition at 10 µM is greater than 50%.
On to `CC1CCN(C(=O)N2CC(C#N)C2)CC1n1c(=O)[nH]c2cnc3[nH]ccc3c21` (stereo not drawn) [Example 280, 1-{[4-Methyl-3-(2-oxo-3,6-dihydroimidazo[4,5-d]pyrrolo[2,3-b]-pyridin-1(2H)-yl)-1-piperidinyl]carbonyl}-3-azetidinecarbonitrile], for which, where the note is “test compound 10^−8M”, the inhibition at 0.01 µM was greater than 50%.
For `C[C@@H]1CCCC[C@@H]1Nc1c(C(N)=O)cnc2[nH]ccc12` [Example 106, 4-{[(1S,2R)-2-Methylcyclohexyl]amino}-1H-pyrrolo[2,3-b]-pyridine-5-carboxamide], the pIC50 is 8.52. In addition, the inhibition at 0.01 µM (test compound 10^−8M) is greater than 50%.
Turning to `N#Cc1ccc(N2CCC(Nc3c(C(N)=O)cnc4[nH]ccc34)CC2)nc1` [Example 17, 4-{[1-(5-Cyano-2-pyridinyl)-4-piperidinyl]amino}-1H-pyrrolo-[2,3-b]pyridine-5-carboxamide], the inhibition at 0.01 µM (test compound 10^−8M) is greater than 50%.
Turning to `Fc1cnc2[nH]ccc2c1N1CCCCC1` [Example 223, 5-fluoro-4-(1-piperidinyl)-1H-pyrrolo[2,3-b]pyridine], the inhibition at 10 µM was greater than 50%.
On the same count and under the same terms, the figure for `CN(c1c(F)cnc2[nH]ccc12)C1CCCCC1` [Example 214, N-cyclohexyl-5-fluoro-N-methyl-1H-pyrrolo[2,3-b]pyridin-4-amine] is greater than 50%.
As to `CCOC(=O)c1cnc2[nH]ccc2c1N(C)[C@H]1CCCC[C@H]1C` [Example 1, ethyl 4-{methyl[(1S,2R)-2-methylcyclohexyl]amino}-1H-pyrrolo[2,3-b]pyridine-5-carboxylate], the inhibition at 10 µM is greater than 50%.
Regarding `C[C@@H]1CCN(c2ccc(C#N)cn2)C[C@@H]1n1c(=O)[nH]c2cnc3[nH]ccc3c21` [Example 240, 6-[(3R,4R)-4-Methyl-3-(2-oxo-3,6-dihydroimidazo[4,5-d]pyrrolo[2,3-b]pyridin-1(2H)-yl)-1-piperidinyl]nicotinonitrile], for the setting “test compound 10^−8M”, the inhibition at 0.01 µM was greater than 50%.
As for `CC1CCN(C(=O)N(C)CC#N)CC1n1c(=O)[nH]c2cnc3[nH]ccc3c21` (stereo not drawn) [Example 284, N-(Cyanomethyl)-N,4-dimethyl-3-(2-oxo-3,6-dihydroimidazo-[4,5-d]pyrrolo[2,3-b]pyridin-1(2H)-yl)-1-piperidinecarboxamide], the inhibition at 0.01 µM (test compound 10^−8M) is greater than 50%.
Turning to `Fc1cnc2[nH]ccc2c1NC1CCCCC1` [Example 222, N-cyclohexyl-5-fluoro-1H-pyrrolo[2,3-b]pyridin-4-amine], the inhibition at 10 µM was greater than 50%.
The molecule `C[C@@H]1CCCC[C@@H]1n1c(=O)[nH]c2cnc3[nH]ccc3c21` [Example 112, 1-[(1S,2R)-2-methylcyclohexyl]-3,6-dihydroimidazo[4,5-d]pyrrolo[2,3-b]pyridin-2(1H)-one] gave a pIC50 of 8.52. Besides, the inhibition at 0.01 µM (test compound 10^−8M) was greater than 50%.
Regarding `CC1CCN(C(=O)N(C)C)CC1n1c(=O)[nH]c2cnc3[nH]ccc3c21` (stereo not drawn) [Example 275, N,N,4-Trimethyl-3-(2-oxo-3,6-dihydroimidazo[4,5-d]pyrrolo-[2,3-b]pyridin-1(2H)-yl)-1-piperidine carboxamide], the inhibition at 0.01 µM (test compound 10^−8M) is greater than 50%.
On to `NC(=O)c1cnc2[nH]ccc2c1NC1CCCC1` [Example 6, 4-(Cyclopentylamino)-1H-pyrrolo[2,3-b]pyridine-5-carboxamide], for which the inhibition at 10 µM is greater than 50%.
Still for that read-out and setting: the figure for `NC(=O)c1cnc2[nH]ccc2c1N[C@@H]1CCCC[C@@H]1CO` [Example 109, 4-{[(1R,2S)-2-(Hydroxymethyl)cyclohexyl]amino}-1H-pyrrolo-[2,3-b]pyridine-5-carboxamide] is greater than 50%.
For `CC1CCN(C(=O)C2(C#N)CC2)CC1n1c(=O)[nH]c2cnc3[nH]ccc3c21` (stereo not drawn) [Example 175, 1-{[4-Methyl-3-(2-oxo-3,6-dihydroimidazo[4,5-d]pyrrolo[2,3-b]-pyridin-1(2H)-yl)-1-piperidinyl]carbonyl}cyclopropane-carbonitrile], where the note is “test compound 10^−8M”, the inhibition at 0.01 µM is greater than 50%.
Turning to `O=C(Nc1ccccc1)c1cnc2[nH]ccc2c1NC1CCCCC1` [Example 192, 4-(Cyclohexylamino)-N-phenyl-1H-pyrrolo[2,3-b]pyridine-5-carboxamide], the inhibition at 10 µM is greater than 50%.
For the molecule `CN(c1ccnc2nc[nH]c12)C1CCCCC1` [Example 209, N-cyclohexyl-N-methyl-1H-imidazo[4,5-b]pyridin-7-amine], the inhibition at 10 µM was greater than 50%.
As to `CC1CCN(c2ncc(C#N)s2)CC1n1c(=O)[nH]c2cnc3[nH]ccc3c21` (stereo not drawn) [Example 242, 2-[4-Methyl-3-(2-oxo-3,6-dihydroimidazo[4,5-d]pyrrolo[2,3-b]-pyridin-1(2H)-yl)-1-piperidinyl]-thiazole-5-carbonitrile], for the setting “test compound 10^−8M”, the inhibition at 0.01 µM is greater than 50%.

The record behind these values is patent publication US8163767B2, “Heterocyclic Janus Kinase 3 inhibitors” (Astellas Pharma Inc., priority 2005, dated 2012).
